Experimental findings from patent publication US7625927B2, “Method of treating glaucoma” (Alcon Research, Ltd., priority 2006, dated 2009) are described below.

This data set has as its system cultured adult rat retinal ganglion cells (RGCs). In words: Glutamate-induced toxicity in cultured adult rat retinal ganglion cells (RGC survival, Thy-1-positive cell count). The data set is classed as cell-based. The conditions noted are these: Compound at 1 μM, 30 min pre-treatment, then 100 μM glutamate for 3 days; Thy-1-positive healthy cells counted; 70% of RGCs survived with glutamate alone. The method, then: Adult Sprague-Dawley rats were euthanized by CO2 asphyxiation. Their eyes were enucleated and the retinas isolated. Retinal cells were treated with of papain solution for 25 min at 37° C., then washed 3 times with 5 mL RGC culture medium (Neurobasal medium with various nutrient supplements+1% fetal calf serum). Retinal cells were dispersed by trituration. Cell suspension was placed onto poly-D-lysine- and laminin-coated 8-well chambered culture slides. The cells were then cultured in 95% air/5% CO2 at 37° C.
For glutamate-induced toxicity studies, cells were pre-treated with vehicle or the indicated compounds for 30 minutes, followed by 100 μM glutamate for 3 days. At the end of the incubation period, the cells were fixed and labeled for Thy-1, a RGC marker, by immunocytochemistry. Cell survival was quantified by manually counting Thy-1-positive healthy cells in each well.

For `COC(=O)CNC(=O)c1ncccc1O` [Compound 1], the “protection against glutamate-induced cytotoxicity (RGC survival)” value is recorded as “protective against this insult”.
